The values below come from patent US4935422A, “Acyloxypropanolamines” (E. I. Du Pont de Nemours and Company, priority 1988, dated 1990).

In this assay the target is β-adrenergic receptors (guinea pig right atria and guinea pig tracheal strips). The assay is described as follows: Beta-blocking activity in vitro: guinea pig right atria and tracheal strips, shift of isoproterenol concentration-response curves (pA2). To be noted: β-blockade of isoproterenol response, 60-minute incubation, 37 °C; pA2 (-log KB) by method of Furchgott; tissue (atria or trachea) not stated in Table 1. The method, then: Several of the compounds of the present invention were tested for β-blocking activity in vitro using guinea pig right atria and guinea pig tracheal strips mounted in a tissue bath containing oxygenated (95% O2 -5% CO2) Krebs physiological salt solution at 37° C. Each tissue was suspended between a fixed glass rod and a Statham Universal Transducer connected to a Beckman recorder. Atria were allowed to beat spontaneously under a loading tension of approximately 0.5 gm. Intrinsic depressant or stimulant activity was determined for each compound by progressively increasing concentrations in the tissue baths at 60-minute intervals. Tissues were not washed between increments. The maximum concentration showing little or no cardiodepressant activity was chosen for blockade experiments. Changes in rate in response to isoproterenol, a standard β-receptor agonist, were measured in the absence and presence of test compounds. Spiral strips of guinea pig trachea were suspended under 5 gm resting tension and incubated with phentolamine, tropolone and cocaine. Active tension was generated by addition of carbachol (3.0×10^-7 M) and decreases in tension in response to isoproterenol were quantitated. Cumulative concentration-response curves were produced with isoproterenol both before and after 60-minute incubation of test compounds with atria and trachea. Compounds with β-blocking activity shifted concentration-response curves to the right. The blocking potency of test compounds was estimated by computing pA2 values (-log […]) by the method of Furchgott, the Pharmacological Differentiation of Adrenergic Receptors, Ann. N.Y. Acad. Sci., 139:553-570 (1967). […] The degree of cardioselectivity was estimated from the ratio, kβ trachea/Kβ atria (10^(pA.sbsp.2^atria-pA.sbsp.2^trachea)). A ratio greater than one indicates cardioselectivity. Test drugs were dissolved in distilled water and added to the bath (30 mL) in a volume of 10 or 100 μL. All of the test compounds are active β-blockers. [drawing 10]
For the compound `CC(C)(C)NCC(O)COC(=O)C1CC1` (stereo not shown) [Compound 2], the pA2 amounted to 6.5.
For `CC(C)(C)NCC(O)COC(=O)C(C)(C)C` (stereo not shown) [Compound 3] the value was 5.3.
For `CC(C)(C)NCC(O)COC(=O)C1CCC1` (stereo not shown) [Compound 4] the value was 5.0; for `CC(C)C(=O)NCC(C)(C)NCC(O)COC(=O)C(C)(C)C` (stereo not shown) [Compound 5], 6.5.
The result for `CC(C)C(=O)NCC(C)(C)NCC(O)COC(=O)C1CCC1` (stereo not shown) [Compound 7] reads 6.5; that for `CC(C)C(=O)NCC(C)(C)NCC(O)COC(=O)C1=CCCC1` (stereo not shown) [Compound 8], 7.6; that for `CC(C)C(=O)NCC(C)(C)NCC(O)COC(=O)C1CC=CCC1` (stereo not shown) [Compound 9], 6.9.
As to `CC(C)(CNC(=O)N1CCCCC1)NCC(O)COC(=O)C1CC1` (stereo not shown) [Compound 10], the pA2 was 8.1.
For the compound `CC(C)(CNC(=O)N1CCOCC1)NCC(O)COC(=O)C1CC1` (stereo not shown) [Compound 11], the pA2 amounted to 8.0.
The result for `CC(C)(CNC(=O)C1CCOC1)NCC(O)COC(=O)/C=C/c1ccccc1` (stereo not shown) [Compound 12] reads 7.3.
